Results published in US20090270407A1, “FUNGICIDAL ISOXAZOLIDINES” (E. I. DU PONT DE NEMOURS AND COMPANY, priority 2008, published 2009).
Marks after values point to notes of the source that are not given here.

Tests used:
[1] = system: Rhizoctonia oryzae; assay: Test G: turf brown patch, preventive spray on creeping bent grass seedlings, visual disease rating; conditions: 40 ppm (marked *); 100 = 100 % disease control, 0 = no disease control relative to controls
Procedure: The test suspension was sprayed to the point of run-off on creeping bent grass seedlings. The following day the seedlings were inoculated with a spore suspension of Rhizoctonia oryzae (the causal agent of turf brown patch) and incubated in a saturated atmosphere at 27° C. for 48 h, and then moved to a growth chamber at 27° C. for 3 days, after which time visual disease ratings were made.
(§1) A dash (−) indicates no test results. All results are for 200 ppm except where followed by “*” which indicates 40 ppm.

[2] = system: Septoria nodorum; assay: Test C: wheat glume blotch, preventive spray on wheat seedlings, visual disease rating; conditions: 40 ppm (marked *); 100 = 100 % disease control, 0 = no disease control relative to controls
Procedure: (An asterisk “*” next to the rating value indicates a 40 ppm test suspension.)
The test suspension was sprayed to the point of run-off on wheat seedlings. The following day the seedlings were inoculated with a spore suspension of Septoria nodorum (the causal agent of wheat glume blotch) and incubated in a saturated atmosphere at 20° C. for 48 h, and then moved to a growth chamber at 20° C. for 7 days, after which time visual disease ratings were made.
as §1

[3] = system: Alternaria solani; assay: Test F: tomato early blight, preventive spray on tomato seedlings, visual disease rating; conditions: 40 ppm (marked *); 100 = 100 % disease control, 0 = no disease control relative to controls
[4] = system: Plasmopara viticola; assay: Test I: grape downy mildew, spray on grape seedlings after inoculation, visual disease rating; conditions: 40 ppm (marked *); 100 = 100 % disease control, 0 = no disease control relative to controls
Text: (§2) General protocol for preparing test suspensions for Tests A-I: The test compounds were first dissolved in acetone in an amount equal to 3% of the final volume and then suspended at the desired concentration (in ppm) in acetone and purified water (50/50 mix) containing 250 ppm of the surfactant Trem® 014 (polyhydric alcohol esters). The resulting test suspensions were then used in Tests A-I. Spraying a 200 ppm test suspension to the point of run-off on the test plants was the equivalent of a rate of 500 g/ha. (An asterisk “*” next to the rating value indicates a 40 ppm test suspension.)
Grape seedlings were inoculated with a spore suspension of Plasmopara viticola (the causal agent of grape downy mildew) and incubated in a saturated atmosphere at 20° C. for 24 h. After a short drying period, the test suspension was sprayed to the point of run-off on the grape seedlings and then moved to a growth chamber at 20° C. for 6 days, after which time the test units were placed back into a saturated atmosphere at 20° C. for 24 h. Upon removal, visual disease ratings were made.
(§3) All results are for 200 ppm except where followed by “*” which indicates 40 ppm.

[5] = system: Septoria tritici; assay: Test D: wheat leaf blotch, preventive spray on wheat seedlings, visual disease rating; type: in vivo; conditions: 40 ppm (marked *); 100 = 100 % disease control, 0 = no disease control relative to controls
Text: A dash (−) indicates no test results.

[6] = system: Botrytis cinerea; assay: Test E: tomato Botrytis, preventive spray on tomato seedlings, visual disease rating; conditions: 100 = 100 % disease control, 0 = no disease control relative to controls
[7] = system: Erysiphe graminis f. sp. tritici; assay: Test A: wheat powdery mildew, preventive spray on wheat seedlings, visual disease rating; conditions: 40 ppm (marked *); 100 = 100 % disease control, 0 = no disease control relative to controls
Text: as §2
The test suspension was sprayed to the point of run-off on wheat seedlings. The following day the seedlings were inoculated with a spore dust of Erysiphe graminis f. sp. tritici (the causal agent of wheat powdery mildew) and incubated in a growth chamber at 20° C. for 8 days, after which time visual disease ratings were made.

[8] = system: Phytophthora infestans; type: in vivo; conditions: 40 ppm (marked *); 100 = 100 % disease control, 0 = no disease control relative to controls
[9] = system: Puccinia recondita f. sp. tritici; assay: Test B: wheat leaf rust, preventive spray on wheat seedlings, visual disease rating; conditions: 40 ppm (marked *); 100 = 100 % disease control, 0 = no disease control relative to controls
Text: General protocol for preparing test suspensions for Tests A-I: The test compounds were first dissolved in acetone in an amount equal to 3% of the final volume and then suspended at the desired concentration (in ppm) in acetone and purified water (50/50 mix) containing 250 ppm of the surfactant Trem® 014 (polyhydric alcohol esters). The resulting test suspensions were then used in Tests A-I. Spraying a 200 ppm test suspension to the point of run-off on the test plants was the equivalent of a rate of 500 g/ha.
The test suspension was sprayed to the point of run-off on wheat seedlings. The following day the seedlings were inoculated with a spore suspension of Puccinia recondita f. sp. tritici (the causal agent of wheat leaf rust) and incubated in a saturated atmosphere at 20° C. for 24 h, and then moved to a growth chamber at 20° C. for 7 days, after which time visual disease ratings were made.
as §3

## CN1O[C@@](c2cccnc2)(C(F)(F)F)C[C@@H]1c1ccc(I)cc1 (relative stereo) [Compound 27, rel-3-[(3R,5S)-3-(4-iodophenyl)-2-methyl-5-(trifluoromethyl)-5-isoxazolidinyl]pyridine]
[1]
  Test G disease control rating: 0* %
[2]
  Test C disease control rating: 100* %
[3]
  Test F disease control rating: 100* %
[4]
  Test I disease control rating: 0* %
[5]
  Test D disease control rating: 95* %
[6]; 40 ppm (marked *)
  Test E disease control rating: 0* %
[7]
  Test A disease control rating: 100* %
[8]
  Test H disease control rating: 0* %
[9]
  Test B disease control rating: 0* %
other
  melting point: 80 to 83 °C

## CN1O[C@](c2cccnc2)(C(F)(F)F)C[C@@H]1c1ccc(I)cc1 (relative stereo) [Compound 28, rel-3-[(3R,5R)-3-(4-iodophenyl)-2-methyl-5-(trifluoromethyl)-5-isoxazolidinyl]pyridine]
[1]
  Test G disease control rating: 0* %
[2]
  Test C disease control rating: 33* %
[3]
  Test F disease control rating: 0* %
[4]
  Test I disease control rating: 0* %
[5]
  Test D disease control rating: 88* %
[6]; 40 ppm (marked *)
  Test E disease control rating: 0* %
[7]
  Test A disease control rating: 99* %
[8]
  Test H disease control rating: 0* %
[9]
  Test B disease control rating: 0* %
other
  melting point: 108 to 110 °C

## CN1O[C@@](C)(c2cccnc2)C[C@@H]1c1ccc(-n2ccc(C(F)(F)F)n2)cc1 (relative stereo) [Compound 36, rel-3-[(3R,5R)-2,5-dimethyl-3-[4-[3-(trifluoromethyl)-1H-pyrazol-1-yl]phenyl]-5-isoxazolidinyl]pyridine]
[1]
  Test G disease control rating: 7* %
[2]
  Test C disease control rating: 0* %
[3]
  Test F disease control rating: 23* %
[4]
  Test I disease control rating: 0* %
[5]
  Test D disease control rating: 73* %
[6]; 40 ppm (marked *)
  Test E disease control rating: 22* %
[7]
  Test A disease control rating: 79* %
[8]
  Test H disease control rating: 0* %
[9]
  Test B disease control rating: 0* %

## CN1O[C@](C)(c2cccnc2)C[C@@H]1c1ccc(-n2cc(Br)cn2)cc1 (relative stereo) [Compound 37, rel-3-[(3R,5S)-3-[4-(4-bromo-1H-pyrazol-1-yl)phenyl]-2,5-dimethyl-5-isoxazolidinyl]pyridine]
[1]
  Test G disease control rating: 0* %
[2]
  Test C disease control rating: 99* %
[3]
  Test F disease control rating: 93* %
[4]
  Test I disease control rating: 0* %
[5]
  Test D disease control rating: 99* %
[6]; 200 ppm
  Test E disease control rating: 94%
[7]
  Test A disease control rating: 95* %
[8]
  Test H disease control rating: 0* %
[9]
  Test B disease control rating: 74* %

## CN1OC(C)(c2cccnc2)CC1c1ccc(-n2cc(Br)cn2)cc1 (centres unmarked) [Compound 38]
[1]
  Test G disease control rating: 0* %
[2]
  Test C disease control rating: 0* %
[3]
  Test F disease control rating: 42* %
[4]
  Test I disease control rating: 0* %
[5]
  Test D disease control rating: 77* %
[6]; 40 ppm (marked *)
  Test E disease control rating: 0* %
[7]
  Test A disease control rating: 0* %
[8]
  Test H disease control rating: 0* %
[9]
  Test B disease control rating: 0* %
